Test results: patent publication US20250381166A1, “Cannabis-Derived Flavonoids And Related Methods” (CANURTA INC., priority 2022, published 2025)

Assays:
[1] = test system: nuclear Arc protein; details: 16.7 μM co-applied with recombinant BDNF for 6 h; cited from earlier work
[2] = test system: nuclear Arc; assay: BDNF-induced nuclear Arc, fluorescent immunocytochemistry, primary cortical neurons; type: cell-based, mouse; details: 10 μM co-treated with BDNF; vs BDNF-alone control
Procedure: Indirect immunofluorescence detection of antigens was carried out using cortical neurons cultured on poly-L-lysine/laminin coated coverslips in 24-well plates at a density of 0.1′10^6 per well. After experimental treatment, cells were washed twice with phosphate-buffered saline (PBS) and fixed for 30 min at room temperature with 4% paraformaldehyde in PBS. After fixation, cells were washed twice with PBS, permeabilized with PBST (PBS and 0.25% Triton X-100) for 20 min, blocked in blocking solution (5% goat non-immune serum in PBS) for another 30 min, and finally incubated overnight at 4° C. with the first primary antibody in blocking solution. The next day, coverslips were extensively washed with PBS and incubated for 2 hours at room temperature in the appropriate fluorophore-conjugated secondary antibody solution [Alexa Fluor 488-, Alexa Fluor 594, or Alexa Fluor 647-conjugated secondary antibody (Molecular Probes, Invitrogen) in blocking solution]. After washes with PBS, the coverslips were incubated again overnight in primary antibody solution for the second antigen, and the procedure for conjugation of the fluorophore-conjugated secondary antibody was repeated as above. Finally, cell nuclei were counterstained with 4′,6-diamidino-2-phenylindole (DAPI), and coverslips were mounted on glass slides with ProLong Antifade reagent (Invitrogen).
Cells cultured on coverslips from three independent biological replicates were imaged with a Nikon Eclipse Ti2-E inverted microscope equipped with a motorized stage, image stitching capability, and a 60× objective (Nikon Instruments, Melville, NY). Image analysis was performed with ImageJ and NIS Elements and the following procedure was used to quantify nuclear Arc level in response to BDNF-TrkB signaling. First, original raw tiff files were opened and the nucleus of all neurons in the image was located based on MAP2 immunostaining, then average pixel intensity corresponding to Arc immunofluorescence was measured for a 30-pixel spot positioned at the center of the nuclear compartment. […]

[3] = test system: Ras-Raf-MEK-MAPK and PI3K/AKT/mTOR cascades; assay: Signaling downstream of TrkB, western blot, primary cortical neurons; details: BDNF-induced increase; 0, 1, 5, 10, 20 μM
Procedure: Developing cerebral cortex from E16.5 CD-1 mouse embryos were dissected and then dissociated in trypsin solution for 15 min followed by three washes with phosphate-buffered saline (PBS). Trypsinized tissue was gently triturated to produce single cell suspension. Next, cells were seeded in poly-L-lysine/laminin coated 6-well plates at a density of 1.5×10^6 per well and maintained in Neurobasal medium containing B27 supplement (2%, Invitrogen, Grand Island, NY), penicillin (50 U/ml, Invitrogen), streptomycin (50 μg/ml, Invitrogen) and glutamine (1 mM, Sigma). For experiments involving BDNF (PeproTech, Rocky Hill, NJ), the growth factor was added directly to the culture medium at a final concentration of 100 ng/ml for the indicated period of time.
For western blot analyses, cells were collected by scraping in ice-cold radioimmunoprecipitation assay (RIPA) buffer (50 mM tris-HCl [pH 8.0], 300 mM NaCl, 0.5% Igepal-630, 0.5% deoxycholic acid, 0.1% SDS, 1 mM EDTA) supplemented with a cocktail of protease inhibitors (Complete Protease Inhibitor without EDTA, Roche Applied Science, Indianapolis, IN) and phosphatase inhibitors (Phosphatase Inhibitor Cocktail 3, Sigma-Aldrich). One volume of 2× Laemmli buffer (100 mM tris-HCl [pH 6.8], 4% SDS, 0.15% bromophenol blue, 20% glycerol, 200 mM b-mercaptoethanol) was added and the extracts were boiled for 5 min. Samples were adjusted to an equal concentration after protein concentrations were determined using the BCA assay (Pierce, Thermo Fisher Scientific). Lysates were separated using SDS-PAGE (polyacrylamide gel electrophoresis) and transferred to a nitrocellulose membrane. After transfer, the membrane was blocked in TBST (tris-buffered saline and 0.1% Tween 20) supplemented with 5% nonfat powdered milk and probed with the indicated primary antibody at 4° C. overnight. After washing with TBST, the membrane was incubated with the appropriate secondary antibody and visualized using enhanced chemiluminescence (ECL) reagents according to the manufacturer's guidelines (Pierce, Thermo Fisher Scientific).

[4] = test system: A172 GBM cells; assay: Boyden Chamber invasion assay; type: cell-based; details: 10 μM; for GBM cell invasion: 24 hours
Procedure: FIG. 9. […] Boyden Chamber assay was performed on A172 GBM cells to analyze minimal doses (10 μM) of TrkB inhibitors on preventing GBM cell invasion. Cells were pretreated in low serum media for 24 hours. Bottoms of transwell inserts were coated with fibronectin and tops were coated with Matrigel prior to cells being seeded with treatment media (low serum; n=3 per treatment). After 24 hours, cells were cleaned off the top of the Matrigel, and cells that invaded into the pores of the transwell were stained with 1% Crystal Violet and (A) imaged at 20×.

[5] = test system: Neuro2a cells stably expressing Ntrk2-Myc-FLAG; assay: Neurite outgrowth assessment; type: cell-based; details: 10 μM with BDNF
Procedure: For neurite outgrowth assay, Neuro2a cells were cultured in DMEM [supplemented with 10% HyClone FetalClone II serum (Cytiva, Global Life Sciences Solutions, Marlborough, MA), penicillin (50 units/ml), and streptomycin (50 μg/ml)] and transfected overnight using Lipofectamine 2000 (Invitrogen) according to the manufacturer's protocol.
Neuro2A cells transfected with a pCMV6-Ntrk2-Myc-DDK (FLAG) construct were selected with G418 (Geneticin) to produce a stable cell line that constitutively expresses tagged-TrkB. For neurite outgrowth assessment, cells were seeded on 15 mm glass coverslips in 12-well plates at a density of 2.0×10^4 per well. […] Phase contrast digital images were collected with a 20× objective 48 h after plating and the total number of viable cells, total number of neurites, and cells with neurites longer than 2 cells in diameter were counted (five fields per dish, three wells per condition).

[6] = test system: A172 GBM cells; assay: AlamarBlue cell viability, A172; type: cell-based; details: 24, 48 and 72 hours, vs DMSO
Procedure: (§1) FIG. 6. Cannflavins A and B reduce the viability of Glioblastoma cells. Cell viability was measured using an AlamarBlue reaction after 24, 48, and 72 hours of treatment. […] Graphs represent mean±SEM.

[7] = test system: U87 GBM cells; assay: Scratch migration analysis, U87; details: 24 hours of treatment
[8] = test system: U87 GBM cells; assay: AlamarBlue cell viability, U87; type: cell-based; details: 24, 48 and 72 hours, vs DMSO
Procedure: as §1

[9] = test system: Arc mRNA; assay: Arc mRNA real-time reverse transcriptase PCR, primary cortical neurons; type: cell-based, mouse; details: 10 μM with BDNF; vs BDNF-alone control
[10] = test system: A172 GBM cells; assay: LDH cytotoxicity assay, A172; type: cell-based; details: 24 hours, compared to DMSO
[11] = test system: U87 GBM cells; assay: LDH cytotoxicity assay, U87; type: cell-based; details: 24 hours, compared to DMSO
[12] = test system: 320 distinct nonolfactory human GPCRs; assay: PRESTO-Tango GPCR assay (GPCRome panel); details: 10 μM; quadruplicate
[13] = test system: A172 GBM cells; assay: Scratch migration analysis, A172; details: 24 hours of treatment
[14] = test system: Arc protein; assay: BDNF-induced Arc expression, western blot, primary cortical neurons; type: cell-based, mouse; details: BDNF co-treatment, tested 1 to 20 μM
Procedure: The following procedure was used to quantify western blot analyses. First, equal quantity of protein lysate was analyzed by SDS-PAGE for each biological replicate. Second, the exposure time of the film to the ECL chemiluminescence was the same for each biological replicate. Third, all the exposed films were scanned on a HP Laser Jet Pro M377dw scanner in grayscale at a resolution of 300 dpi. Fourth, the look-up table (LUT) of the scanned tiff images was inverted and the intensity of each band was individually estimated using the selection tool and the histogram function in Adobe Photoshop CC 2021 software. Finally, the intensity of each band was divided by the intensity of its respective loading control (b-actin) to provide the normalized value used for statistical analysis.

[15] = test system: prostaglandin E2 production; details: inhibitors of prostaglandin E2 production; cited from earlier work
[16] = test system: medulloblastoma cell; details: TrkB inhibition; cited from earlier work
[17] = test system: Mapk; assay: Mapk phosphorylation, western blot, Neuro2a cells stably expressing Ntrk2-Myc-FLAG; type: cell-based; details: with BDNF
[18] = molecular target: T1, GPR150 (Homo sapiens, UniProt Q8NGU9); assay: PRESTO-Tango GPCR assay, GPR150; type: cell-based; details: 10 μM
T1 construct: expressed in transfected cells
T1 sequence (Q8NGU9 whole entry): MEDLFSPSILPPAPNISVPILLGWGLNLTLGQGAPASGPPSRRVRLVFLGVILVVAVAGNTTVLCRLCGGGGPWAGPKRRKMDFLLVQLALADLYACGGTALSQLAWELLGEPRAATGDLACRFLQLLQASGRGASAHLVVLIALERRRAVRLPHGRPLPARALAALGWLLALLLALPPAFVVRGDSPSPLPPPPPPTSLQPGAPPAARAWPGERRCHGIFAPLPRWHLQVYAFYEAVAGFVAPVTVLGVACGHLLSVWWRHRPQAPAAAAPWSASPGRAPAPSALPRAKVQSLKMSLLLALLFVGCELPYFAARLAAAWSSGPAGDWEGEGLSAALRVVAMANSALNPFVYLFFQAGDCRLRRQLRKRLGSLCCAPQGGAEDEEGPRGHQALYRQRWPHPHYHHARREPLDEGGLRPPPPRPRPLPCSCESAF

For `O=c1c(-c2ccc(O)cc2)coc2cc(O)cc(O)c12` [genistein], the “nuclear Arc protein level” value [1] is given as “enhance nuclear Arc protein level above the control measure” and the “percentage of nuclei with Arc expression above threshold (Arc-positive neuronal abundance)” value (“percentage of nuclei” below) [2] is given as “moderate increase”.

For `COc1cc(-c2cc(=O)c3c(O)c(C/C=C(\C)CCC=C(C)C)c(O)cc3o2)ccc1O` [cannflavin A], the P-Akt level [3] was “sharply reduced”, the P-MAPK level [3] was “sharply reduced” and the P-mTOR level [3] was “sharply reduced”. For the same molecule, the P-rpS6 level [3] was “sharply reduced”, the GBM cell invasion [4] was “reduce invasion” and the BDNF-induced neurite outgrowths [5] was “reduce”. The “cell viability (AlamarBlue)” value [6] was “reduced cell viability”, the cell migration [7] was “reduce the migration” and the “cell viability (AlamarBlue)” value [8] was “reduced cell viability”. The “Arc mRNA abundance” value [9] was “prevent induction of Arc mRNA expression”, the “LDH release / cell necrosis” value [10] was “slight increase in LDH release” and the “LDH release / cell necrosis” value [11] was “slight increase in LDH release”. The “agonist activity on GPCRs” value [12] was “no effect on any of the 322 different GPCRs tested”, the cell migration [13] was “reduce the migration” and the “concentrations resulting in significantly less Arc protein abundance than the BDNF-alone control” value [14] was 10 to 20 µM. The “anti-inflammatory potency relative to aspirin” value [15] was “thirty times more potent than aspirin”.

For `O=c1cc(-c2ccccc2)oc2c(O)c(O)ccc12` [7,8-DHF, 7,8-dihydroxyflavone], the “nuclear Arc protein level” value [1] is given as “enhance nuclear Arc protein level above the control measure”.

In the case of `O=c1c(-c2ccc(O)cc2)coc2cc(O)ccc12` [daidzein], the “nuclear Arc protein level” value [1] is listed as “enhance nuclear Arc protein level above the control measure” and the “percentage of nuclei” value [2] is listed as “moderate increase”.

For `O=C(Nc1ccccc1C(=O)NC1CCCCNC1=O)c1cc2ccccc2s1` (stereo not shown) [ANA-12], the GBM cell invasion [4] was “decrease in GBM cell invasion”, the “number of cells with neurites twice the length of the cell” value ([5]; 24-hour treatment) was “decrease” and the “total number of neurites per field” value ([5]; 24-hour treatment) was “decrease”. For the same molecule, the viable cells ([5]; 24-hour treatment) was “decrease”, the “cell viability (AlamarBlue)” value [6] was “reduced cell viability” and the medulloblastoma cell survival [16] was “reduced medulloblastoma cell survival by inducing apoptosis”. For the same molecule, the “cell viability (AlamarBlue)” value [8] was “reduced cell viability” and the P-Mapk levels [17] was “did not observe a decrease”.

In the case of `COc1cc(-c2cc(=O)c3c(O)c(CC=C(C)C)c(O)cc3o2)ccc1O` [cannflavin B], the P-Akt level [3] is reported as “sharply reduced”, the P-MAPK level [3] is reported as “sharply reduced” and the P-mTOR level [3] is reported as “sharply reduced”. For the same molecule, the P-rpS6 level [3] was “sharply reduced”, the GBM cell invasion [4] was “decrease in GBM cell invasion” and the “efficiency in reducing cell invasion compared with the other TrkB inhibitors” value ([4]; no statistical scores) was “tends to be more efficient in reducing cell invasion than cannflavin A and ANA-12”. For the same molecule, the BDNF-induced neurite outgrowths [5] was “reduce”, the “cell viability (AlamarBlue)” value [6] was “reduced cell viability” and the cell migration [7] was “reduce the migration”. The “cell viability (AlamarBlue)” value [8] was “reduced cell viability”, the “Arc mRNA abundance” value [9] was “prevent induction of Arc mRNA expression” and the “LDH release / cell necrosis” value [10] was “slight increase in LDH release”. The “LDH release / cell necrosis” value [11] was “slight increase in LDH release”, the cell migration [13] was “reduce the migration” and the “concentrations resulting in significantly less Arc protein abundance than the BDNF-alone control” value [14] was 1 to 20 µM. The “increase of GPR150 activity from baseline” value [18] was 4.4 fold-change and the “anti-inflammatory potency relative to aspirin” value [15] was “thirty times more potent than aspirin”.

In the case of `Oc1cc(O)c2c(c1)O[C@H](c1cc(O)c(O)c(O)c1)[C@H](O)C2` [ECGC, (−)-epigallocatechin], the “nuclear Arc protein level” value [1] is listed as “enhance nuclear Arc protein level above the control measure” and the “percentage of nuclei” value [2] is listed as “moderate increase”.

For `O=C(O)[C@H]1O[C@@H](Oc2cc3oc(-c4ccccc4)cc(=O)c3c(O)c2O)[C@H](O)[C@@H](O)[C@@H]1O` [baicalin], the “nuclear Arc protein level” value [1] is listed as “enhance nuclear Arc protein level above the control measure”.
